One assay deals with rats. In words: effect on spontaneous behavior (sleep induction) after ip injection. It counts as in vivo. On the procedure:
Synthetic cis-9,10-octadecenoamide was injected (ip) into rats in order to test its effect on spontaneous behavior at different doses: 1 (n=2), 2 (n=2), 5 (n=7), 10 (n=10), 20 (n=2), and 50 (n=2) mg, where n = number of rats tested. […] However, at a threshold of 5 mg and above there was a marked effect consisting of an induction of long-lasting motor quiescence associated with eyes closed, sedated behavior characteristic of normal sleep. Also as with normal sleep, the rats still responded to auditory stimuli with orienting reflex and sustained attention toward the source of stimulation. In addition, motor behavior was impaired. The latency to behavioral sedation following administration was about 4 minutes and subjects were normally active again after 1 hour (5 mg), 2 hour (10 mg), or 2.5 hour (20 mg and 50 mg).
(§1) We have compared cis-9,10-octadecenoamide to vehicle and the synthetic analogs listed in Figure 1 to estimate the structural specificity of its sleep-inducing potential. […] More particularly, male Sprague-Dawley rats (300 g at the time of surgery) were implanted under halothane anesthesia (2-3%) with a standard set of electrodes for sleep recordings. This included two screw electrodes placed in the parietal bone over the hippocampus to record the subjects electroencephalogram (EEG) and two wire electrodes inserted in the neck musculature to record postural tone through electromyographic activity (EMG). Rats were housed individually with at libitum access to food and water. The dark-light cycle was controlled (12:12, lights on a 10:00 p.m.). One week after the surgery, rats were habituated to the recording conditions for at least three days. Upon the completion of the habituation period, rats received 2 milliliter (ip) of either: vehicle (5% ethanol/saline solution), cis-9,10-octadecenoamide (10 mg), or oleic acid (10 mg). […] Sleep recordings were visually scored and four stages were determined: wakefulness, slow-wave-sleep 1 (SWS1), slow-wave-sleep 2 (SWS2), and rapid eye movement (REM) sleep.

Another assay deals with male Sprague-Dawley rats. In words: polysomnographic sleep recordings (EEG/EMG) after ip injection. The class given is in vivo. To be noted: 10 mg ip, compared to vehicle controls, recorded four hours.
Excerpt: as §1
These increases with respect to slow wave sleep (SWS) were at the expense of waking.

Assay [1] deals with T1, cis-9,10-octadecenoamidase, rat brain membrane fraction (Rattus norvegicus, UniProt P97612).
T1 sequence (P97612 1-579): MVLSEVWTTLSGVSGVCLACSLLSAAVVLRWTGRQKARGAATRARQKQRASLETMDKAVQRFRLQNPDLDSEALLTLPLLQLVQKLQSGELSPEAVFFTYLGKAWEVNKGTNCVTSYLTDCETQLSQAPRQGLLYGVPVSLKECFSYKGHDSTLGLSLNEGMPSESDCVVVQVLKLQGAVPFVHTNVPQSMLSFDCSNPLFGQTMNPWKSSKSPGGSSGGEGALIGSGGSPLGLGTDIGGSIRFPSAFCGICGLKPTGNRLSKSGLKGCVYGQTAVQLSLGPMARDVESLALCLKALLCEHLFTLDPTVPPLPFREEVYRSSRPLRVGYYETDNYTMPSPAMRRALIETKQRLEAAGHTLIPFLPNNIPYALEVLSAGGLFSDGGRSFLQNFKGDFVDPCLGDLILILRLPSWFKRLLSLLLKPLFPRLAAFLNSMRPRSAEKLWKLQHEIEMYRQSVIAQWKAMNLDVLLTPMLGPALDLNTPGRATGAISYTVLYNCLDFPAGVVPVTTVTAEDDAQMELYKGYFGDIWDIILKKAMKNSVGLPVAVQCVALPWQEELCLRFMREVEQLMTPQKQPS
It counts as biochemical. To be noted: 1 mM inhibitor, 1000 µM. The protocol:
In each case the enzymic reaction is performed is a separate reaction vessel and the product is spotted onto a TLC plate.
The following protocol is used for assaying cis-9,10-octadecenoamide hydrolysis activity: To […] of 125 mM Tris·HCl, pH 9.0 was added successively 70 mL protein fraction (1 mg/mL protein concentration for brain membrane fraction, 2 mg/mL for brain soluble fraction, 5 mg/mL for pancreatic microsomal preparation), 6 mL of ethanol, and 4 mL of ^14C-cis-9,10-octadecenoamide (in ethanol, 0.25 mCi/mL). Each reaction mixture is incubated for 4 hours at 37°C and then partitioned between EtOAc and 0.07 M HCl. The EtOAc layer is evaporated to dryness and the remaining residue is dissolved in 15 mL ethanol. TLC fractions are taken from this ethanol stock. TLC plates are treated with EN^3HANCE spray and developed at -78°C for 2 hours.

The target in assay [2] is T2, amidase activity which catalyzes both the hydrolysis and synthesis of arachidonylethanolamide (anandamide), membrane subcellular fractions from neuroblastoma, g (Rattus norvegicus, UniProt P97612).
T2 sequence (P97612 1-579): T1 sequence (P97612 1-579)
To be noted: 1.5 mM concentration; cited from earlier work.

The structures appear in SMILES notation. Where two headings read alike, the source gives them in different places.

On to `CCCCCCCCC/C=C\CCCCCCC(N)=O` [Compound 3, Cis-8,9-octadecenoamide], for which, in the assay on rats (rats), the “pharmacological effects compared with cis-9,10-octadecenoamide” value was “substantial reduction in both the degree and duration of the pharmacological effects”.
As for `CCCCCC/C=C\CCCCCCCCCC(N)=O` [Compound 4, Cis-11,12-octadecenoamide], the “pharmacological effects compared with cis-9,10-octadecenoamide” value with rats (rats) was “substantial reduction in both the degree and duration of the pharmacological effects”.
On the same count and under the same terms, the value for `CCCCCCCC/C=C\CCCCCCCCCCCC(N)=O` [Compound 6, Erucamide] was “substantial reduction in both the degree and duration of the pharmacological effects”.
Consider `CCCCCCCC/C=C\CCCCCCCC(N)=O` [cis-9,10-octadecenoamide, Cis-9,10-octadecenoamide], for which, in the assay with male Sprague-Dawley rats, the “mean duration of the SWS individual periods” value is “increase”. Further, the “total time of slow wave sleep (SWS)” value in the assay with male Sprague-Dawley rats is “increase”. For the same compound, the “time after which subjects were normally active again” value with rats (5 mg ip, rats) came out at 1 h; in the assay on rats (10 mg ip, rats) it was 2 h; in the assay with rats (20 mg ip, rats), 2.5 h; in the assay with rats (50 mg ip, rats), 2.5 h. Moreover, the “duration of the biological effect (sleep-inducing properties)” value in the assay on rats (10 mg per rat) is on record as “two”. In addition, the “latency to behavioral sedation following administration” value in the assay on rats (ip, rats) is “about 4 minutes”. Moreover, in the assay with rats (ip, rats), the “threshold dose for induction of long-lasting motor quiescence, sedated behavior characteristic of normal sleep” value turned out to be 5 mg. The “effect on spontaneous behavior” value in the assay on rats (lower doses (1 and 2 mg), ip, rats) was “no overt effect on spontaneous behavior”.
Consider `CCCCCCCC/C=C\CCCCCCCC(=O)O` [oleic acid, Oleic acid, reference compound], for which the overt behavioral effect result with rats (rats, compared with cis-9,10-octadecenoamide) is listed as “nor oleic acid (5) showed any overt behavioral effect”.
On to `O=S(=O)(F)Cc1ccccc1` [phenylmethylsulfonyl fluoride], for which the “inhibition of enzymatic activity (hydrolysis of cis-9,10-octadecenoamide to oleic acid)” value is on record as “completely inhibited” in assay [1] and “inhibited” in assay [1] (listed as PMSF). The “inhibition of the amidase activity (anandamide hydrolysis)” value in assay [2] is on record as “completely inhibited”.
